Where a name gives a salt, the structure may show the parent alone.

In general, IC50 refers to the concentration that gives 50% inhibition.

The experiment deals with human SERT (Homo sapiens, UniProt P31645). The experiment can be described thus: Inhibitory activity assay against 5-HT transporter (neurotransmitter transporter uptake assay kit). The conditions noted are these: HEK-293 cells overexpressing human SERT; read-out: 5-HTT (IC50). The format is cell-based. How it is done: In HEK-293 cells overexpressing human SERT, the transporter inhibitory effect of the test compound on human SERT was assayed using a Neurotransmitter transporter uptake assay kit (Molecular devices).
Chain of human SERT (P31645 whole entry): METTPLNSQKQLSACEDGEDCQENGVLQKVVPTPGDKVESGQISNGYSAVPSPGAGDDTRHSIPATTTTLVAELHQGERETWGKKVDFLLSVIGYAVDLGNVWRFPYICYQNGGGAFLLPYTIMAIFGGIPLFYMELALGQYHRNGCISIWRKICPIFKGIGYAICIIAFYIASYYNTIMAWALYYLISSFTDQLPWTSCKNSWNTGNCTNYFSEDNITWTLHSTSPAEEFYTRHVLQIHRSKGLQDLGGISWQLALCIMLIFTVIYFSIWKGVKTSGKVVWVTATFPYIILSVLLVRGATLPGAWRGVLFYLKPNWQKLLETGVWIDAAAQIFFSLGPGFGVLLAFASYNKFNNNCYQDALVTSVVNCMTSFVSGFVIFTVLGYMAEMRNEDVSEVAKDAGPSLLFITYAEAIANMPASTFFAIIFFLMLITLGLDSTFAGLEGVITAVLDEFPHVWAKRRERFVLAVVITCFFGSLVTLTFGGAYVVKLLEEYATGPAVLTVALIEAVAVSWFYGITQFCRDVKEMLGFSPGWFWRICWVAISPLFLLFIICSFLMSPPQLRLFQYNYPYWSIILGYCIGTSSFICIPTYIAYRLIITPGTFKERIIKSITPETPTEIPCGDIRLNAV

With `NC1(c2ccccc2)CCc2nc(C(F)(F)F)sc2C1` (racemic) [rac-A131, 6-phenyl-2-(trifluoromethyl)-4,5,6,7-tetrahydrobenzo[d]thiazol-6-amine hydrochloride], the IC50 stood at 3.6 µM. Consider `COc1cccc(C2(N)CCc3nc(Br)sc3C2)c1` (racemic) [rac-A318, 2-bromo-6-(3-methoxyphenyl)-4,5,6,7-tetrahydrobenzo[d]thiazol-6-amine hydrochloride], for which the IC50 was determined as 4.6 µM. For the molecule `CSc1cccc(C2(N)CCc3nc(N)sc3C2)c1` (racemic) [rac-A304, 6-(3-methylthio)phenyl-4,5,6,7-tetrahydrobenzo[d]thiazole-2,6-diamine], the half-maximal inhibitory concentration (IC50) was 3.7 µM. Turning to `CN(C)C1(c2ccccc2)CCc2sc(N)nc2C1` (racemic) [rac-A249, N^5, N^5-dimethyl-5-phenyl-4,5,6,7-tetrahydrobenzo[d]thiazole-2,5-diamine], the IC50 was 1 µM.

In the case of `CNC1(c2cccc(OC)c2)CCc2nc(N)sc2C1` (racemic) [rac-A88, 6-(3-methoxyphenyl)-N^6-methyl-4,5,6,7-tetrahydrobenzothiazole-2,6-diamine], the IC50 turned out to be 0.9 µM. In the case of `COc1cccc(C2(N)CCc3nc(NC(C)=O)sc3C2)c1` (racemic) [rac-A300, N-(6-amino-6-(3-methoxyphenyl)-4,5,6,7-tetrahydrobenzo[d]thiazol-2-yl)acetamide], the IC50 was determined as 2.1 µM. On to `CNC1(c2ccccc2)CCc2nc(O)sc2C1` (racemic) [rac-A279, 6-(methylamino)-6-phenyl-4,5,6,7-tetrahydrobenzo[d]thiazol-2-ol], for which the 50% inhibitory concentration (IC50) was found to be 0.028 µM. As for `COc1nc2c(s1)CC(N)(c1ccccc1)CC2` (racemic) [rac-A225, 2-methoxy-6-phenyl-4,5,6,7-tetrahydrobenzo[d]thiazol-6-amine], the IC50 came out at 1 µM.

Consider `Cc1ccccc1C1(N)CCc2nc(N)sc2C1` (racemic) [rac-A100, 6-(2-methylphenyl)-4,5,6,7-tetrahydrobenzothiazole-2,6-diamine], for which the half-inhibitory concentration (IC50) came to 17 µM. Turning to `CNC1(c2ccc(F)cc2F)CCc2nc(N)sc2C1` (racemic) [rac-A236, 6-(2,4-difluorophenyl)-N^6-methyl-4,5,6,7-tetrahydrobenzo[d]thiazole-2,6-diamine], the IC50 is 2.8 µM. For `N[C@]1(c2ccccc2)CCc2ncsc2C1` [R-A14] the value was 0.067 µM; for `Nc1nc2c(s1)CC(N)(c1cccnc1)CC2` (racemic) [rac-A98, 6-(pyridin-3-yl)-4,5,6,7-tetrahydrobenzothiazole-2,6-diamine], 16 µM; for `Nc1nc2c(s1)CC(N)(c1ccc3ccccc3c1)CC2` (racemic) [rac-A118, 6-(naphthalen-2-yl)-4,5,6,7-tetrahydrobenzothiazole-2,6-diamine], 2 µM. On to `CCOc1nc2c(s1)CC(N)(c1ccccc1)CC2` (racemic) [rac-A257, 2-ethoxy-6-phenyl-4,5,6,7-tetrahydrobenzo[d]thiazol-6-amine], for which the half-maximal inhibitory concentration (IC50) came out at 0.3 µM. On to `CN(Cc1ccccc1)C1(c2ccccc2)CCc2[nH]ncc2C1` (racemic) [rac-A68, N-benzyl-N-methyl-5-phenyl-4,5,6,7-tetrahydro-1H-indazol-5-amine], for which the IC50 came out at 0.7 µM. As for `Nc1nc2c(s1)CC(N)(c1ccc(F)cc1F)CC2` (racemic) [rac-A235, 6-(2,4-difluorophenyl)-4,5,6,7-tetrahydrobenzo[d]thiazole-2,6-diamine], the concentration for half-maximal inhibition (IC50) came out at 5.9 µM. On to `COc1cccc(C2(N)CCc3nc(C(N)=O)sc3C2)c1` (racemic) [rac-A315, 6-amino-6-(3-methoxyphenyl)-4,5,6,7-tetrahydrobenzo[d]thiazole-2-formamide], for which the IC50 was 6.8 µM. For `NC1(c2cccc(O)c2)CCc2nc(O)sc2C1` (racemic) [rac-A306, 6-amino-6-(3-hydroxyphenyl)-4,5,6,7-tetrahydrobenzo[d]thiazol-2-ol], the IC50 is 0.2 µM.

Turning to `NC1(c2ccc(F)cc2)CCCc2cn[nH]c21` (racemic) [rac-A222, 7-(4-fluorophenyl)-4,5,6,7-tetrahydro-1H-indazol-7-amine], the IC50 was determined as 10 µM.

Regarding `COc1ccc(C2(N)CCc3nc(N)sc3C2)cc1` (racemic) [rac-A89, 6-(4-methoxyphenyl)-4,5,6,7-tetrahydrobenzothiazole-2,6-diamine], the IC50 worked out at 7.6 µM.

Regarding `NC1(c2ccccc2)CCc2nc(O)sc2C1` (racemic) [rac-A8, 6-amino-6-phenyl-4,5,6,7-tetrahydrobenzothiazol-2-ol], the IC50 was determined as 0.007 µM. `CNC1(c2cccc(C(F)(F)F)c2)CCc2nc(N)sc2C1` (racemic) [rac-A94, 6-(3-trifluoromethylphenyl)-N^6-methyl-4,5,6,7-tetrahydrobenzothiazole-2,6-diamine hydrobromide]: the IC50 was found to be 4.3 µM.

With `CNC1(c2ccccc2F)CCc2nc(N)sc2C1` (racemic) [rac-A81, 6-(2-fluorophenyl)-N^6-methyl-4,5,6,7-tetrahydrobenzothiazole-2,6-diamine], the 50% inhibitory concentration (IC50) amounted to 0.094 µM. For the molecule `CCOc1cccc(C2(N)CCc3nc(O)sc3C2)c1` (racemic) [rac-A295, 6-amino-6-(3-ethoxyphenyl)-4,5,6,7-tetrahydrobenzo[d]thiazol-2-ol hydrochloride], the IC50 came to 0.11 µM.

With `CNC1(c2cccc(OC)c2)CCc2ncsc2C1` (racemic) [rac-A273, 6-(3-methoxyphenyl)-N-methyl-4,5,6,7-tetrahydrobenzo[d]thiazol-6-amine hydrochloride], the 50% inhibitory concentration (IC50) was 1 µM.

Consider `N#Cc1cccc(C2(N)CCc3nc(N)sc3C2)c1` (racemic), for which the concentration for half-maximal inhibition (IC50) is 8.9 µM. For `CNC1(c2ccc(OC)c(OC)c2)CCc2nc(N)sc2C1` (racemic) [rac-A254, 6-(3,4-dimethoxyphenyl)-N^6-methyl-4,5,6,7-tetrahydrobenzo[d]thiazole-2,6-diamine] the value was 2 µM. As for `COc1cccc(C2(N)CCc3nc(-c4ccccc4)sc3C2)c1` (racemic) [rac-A319, 6-(3-methoxyphenyl)-2-phenyl-4,5,6,7-tetrahydrobenzo[d]thiazol-6-amine hydrochloride], the concentration for half-maximal inhibition (IC50) amounted to 0.98 µM. With `Nc1nc2c(s1)C[C@@](N)(c1ccccc1)CC2` [R-A1] the figure was 1 µM; with `CCNc1nc2c(s1)CC(N)(c1cccc(OC)c1)CC2` (racemic) [rac-A301, N^2-ethyl-6-(3-methoxyphenyl)-4,5,6,7-tetrahydrobenzo[d]thiazole-2,6-diamine hydrochloride], 4 µM; with `NC1(c2ccccc2)CCc2scnc2C1` (racemic) [rac-A134, 5-phenyl-4,5,6,7-tetrahydrobenzo[d]thiazol-5-amine], 17 µM. Turning to `NC1(c2ccccc2)CCc2nnsc2C1` (racemic) [rac-A244, 6-phenyl-4,5,6,7-tetrahydrobenzo[d][1,2,3]thiadiazol-6-amine hydrochloride], the IC50 is 1.5 µM. Take `COc1cccc(C2(N)CCc3nc(O)sc3C2)c1` (racemic) [rac-A262, 6-amino-6-(3-methoxyphenyl)-4,5,6,7-tetrahydrobenzo[d]thiazol-2-ol]: the IC50 was found to be 0.14 µM. In the case of `NC1(c2ccccc2)CCc2oncc2C1` (racemic) [rac-A145, phenyl-4,5,6,7-tetrahydrobenzo[d]isoxazol-5-amine], the IC50 stood at 0.6 µM.

The values are drawn from patent publication US20260174739A1 (priority 2022, published 2026).
